# Entries after “also recorded” stand apart in the source; their conditions may differ.
# How the values were obtained:
# [1] = system: naïve splenocytes exposed to GL261 cells; test: GL261 cells incubated with naive splenocytes in trans-well plate +/- CD200R antagonist: MDSC expansion and IFN-γ; type: cell-based, mouse
# Protocol: FIGS. 17A-17B. CD200R antagonist blocks MDSC expansion and tumor suppressive effects. (FIG. 17A) Murine glioma GL261 was incubated with naïve splenocytes in a trans-well plate+/−CD200R antagonist and analyzed for MDSC expansion and cytokine production. (FIG. 17B) Naïve splenocytes were pulsed with purified CD200+/−CD200R antagonist and analyzed for MDSC expansion and arginase-I production. Error bars are ±SEM, statistical significance was determined by one-way ANOVA, post hoc analysis by Dunn's multiple comparison test, *p<0.05, ** p<0.001.
# To determine the level of MDSC expansion when splenocytes were exposed to tumor cells, splenocytes were also harvested and purified as described above; 300,000 splenocytes were plated in the bottom of 24 well transwell plates containing a 0.4-micron filter. Following 24 hr incubation, 30,000 GL261 cells were plated on the transwell insert with and without the CD200R antagonist 6059. Total volume was 700 μl/well so that the insert was submerged in the media within the wells. Cells were incubated for 5 days, harvested, and stained with CD11b and GR-1 to determine MDSC levels. In another set of wells, OVA was added to the wells 24 hours after the splenocytes were plated. Following another 72 hr incubation, 3×10^5 purified CD8 T-cells isolated from an OT-I mouse and were added to the wells and incubated for an additional 72 hrs. […]
# EMT6 tumor bearing mice = test: EMT6 breast carcinoma model: tumor lysate + CpG +/- competitive inhibitor, survival; type: in vivo, BALB/c mice
# Protocol: FIG. 6. Percent survival of mice inoculated with 1×10^6 EMT6 cells. To determine if our competitive inhibitors worked in other tumor models, mice were inoculated in the fat pad with 1×10^6 EMT6 cells. Specifically, mice were vaccinated with 65 μg of EMT6 tumor lysates+50 μg of adjuvant CpG and 50 μg of different completive inhibitors (6059, 4004, 4013 and 6061) and monitored for survival. Saline and tumor lysate+adjuvant CpG were used as controls.
# FIGS. 19A-19B. Select CD200 antagonists enhance survival. (FIG. 19A) EMT6 tumor bearing mice were vaccinated with tumor lysate, CpG+/−CD200 antagonist 4004, 4013 or 6059. […] Log-rank analysis was used for survival.
# Tumors were implanted into female C57BL/6 mice (6-8 wk old) (Jackson Laboratory) and maintained in a pathogen-free facility according to the guidelines of the University of Minnesota Animal Care and Use Committee. The GL261 orthotopic transplant model was established in C57BL/6 (B6) mice by inoculation with 15,000 GL261-Luc^+ cells in 1 μl of saline. Tumors were implanted stereotactically into the right striatum; coordinates were 2.5 mm lateral, 0.5 mm anterior of bregma, and 3 mm deep from the cortical surface of the brain^19. Tumor burden was determined by bioluminescent imaging. Light emitted from the tumors was quantified using Living Image software (Xenogen) and expressed as photons per second per centimeter squared per steradian (p/s/cm^2/sr). GL261 cells for tumor lysate vaccines were cultured in neural stem cell media consisting of DMEM/F12 (1:1) with L-glutamine, sodium bicarbonate, penicillin/streptomycin (100 U/ml), B27 and N2 supplements (Life Technologies), and 0.1 mg/ml Normocin (Invivogen). Cultures were maintained at 5% 02 and supplemented with 20 ng/ml EGF and FGF semiweekly (R&D Systems, Minneapolis, Minn.). […] Mice were euthanized when tumors reached 1000 mm^3. […] Tumor cells used to establish both models were cultured in DMEM containing 10% FBS, penicillin/streptomycin (100 U/ml), and 0.1 mg/ml Normocin (Invivogen) in atmospheric oxygen.
# CD200R = biological target: T1, CD200R (Mus musculus, UniProt Q9ES57); settings: reportedly; cited from earlier work
# T1 sequence (Q9ES57 26-326): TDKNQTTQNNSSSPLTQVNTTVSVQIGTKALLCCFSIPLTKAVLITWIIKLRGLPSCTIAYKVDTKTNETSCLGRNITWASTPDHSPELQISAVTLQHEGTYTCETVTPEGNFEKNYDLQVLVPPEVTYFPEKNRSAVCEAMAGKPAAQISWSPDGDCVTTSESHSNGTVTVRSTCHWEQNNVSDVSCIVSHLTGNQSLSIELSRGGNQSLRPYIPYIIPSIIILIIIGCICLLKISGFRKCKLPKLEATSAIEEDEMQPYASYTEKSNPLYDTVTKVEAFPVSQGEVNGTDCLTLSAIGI
# non-tumor bearing mice = test: Vaccination of non-tumor bearing mice with OVA + glioma-derived exosomes + antagonist; type: in vivo
# Protocol: FIGS. 12A-12C. […] Tumor and non-tumor bearing mice were vaccinated with OVA+Poly:ICLC+/−the CD200R antagonist 6059 and analyzed for FIG. 12A) SIINFEKL/Kb+CD8+ T cell expansion (‘SIINFEKL’ disclosed as SEQ ID NO: 11). FIG. 12B) Lymphocytes were harvested and stimulated with SIINFEKL peptide (SEQ ID NO: 11). Supernatants were analyzed for TNFα and IFNγ secretion. FIG. 12C) The antagonist 6059 was added to OVA+exosomes. Error bars indicate +/−SEM (n=4/group; *P<0.05; by t-test). FIGS. 12A-12C discloses ‘SIINFEKL’ disclosed as SEQ ID NO: 11.
# Whether the different antagonists described by Gorczynski et. al. (J Surg Res 2008; 145(1): 87-96) could modulate or reverse the suppressive effects of the tumor microenvironment was also investigated. It was concluded that different antagonists either act through different CD200R isoforms or have different biological effects on the same receptor. These conclusions were supported by experiments where splenocytes were pulsed with OVA+selected CD200R antagonists (6061, 6069, 4004, 4006, 4013) for 24 hours. The splenocytes were then washed and cultured for 48 hours with the addition of OT-1 T cells. The cultures were then assessed for cytokine production using a flow cytometric bead array. […] Other antagonists were similarly evaluated.
sequence,measurement,setting,value
NTIGDGGCY [Antagonist 6059],IFN-γ production of OT-I CD8 T-cells in response to OVA,[1]; trans-well with GL261 cells,blocked both the expansion of MDSCs as well as the production of IFN-γ
same,Expansion of CD11b+Gr1+ MDSC induced by GL261 cells,"[1]; trans-well, 5 days",blocked both the expansion of MDSCs
same,Survival,EMT6 tumor bearing mice,results translated to a breast carcinoma (EMT6) model; also recorded: significantly extended survival benefit
same,Competition with CD200 for binding to CD200R,CD200R,outcompetes the intact CD200 protein for binding to the CD200R
same,Suppression induced by glioma-derived exosomes,non-tumor bearing mice,partially reversed the suppression induced by exosomes
